Data as given in the supplement of paper PMC11451515.

System: P12-Ichikawa
Assay: cell viability relative to DMSO control; higher = less cytotoxic
Details: 48 h
Outline: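 In 1536-well plates, 5 μl of leukemia cells were seeded per well: 500 cells/well for NOMO1 or SEM and 1000 cells/well for P12-Ichikawa. Each line had first been adapted for at least four passages in each medium. Library compounds in DMSO were pin-dosed at 11 threefold concentrations between 47 μM and 0.79 nM, and CellTiter-Glo One luminescence was read after 48 h at 37°C. Viability is a per-plate percentage relative to DMSO wells, with cell-free wells as background.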

[1] = HPLM + 10% dialyzed FBS, 0.000781 µM
[2] = HPLM + 10% dialyzed FBS, 0.00234 µM
[3] = HPLM + 10% dialyzed FBS, 0.00702 µM
[4] = HPLM + 10% dialyzed FBS, 0.0211 µM
[5] = HPLM + 10% dialyzed FBS, 0.0632 µM
[6] = HPLM + 10% dialyzed FBS, 0.19 µM
[7] = HPLM + 10% dialyzed FBS, 0.569 µM
[8] = HPLM + 10% dialyzed FBS, 1.71 µM
[9] = HPLM + 10% dialyzed FBS, 5.12 µM
[10] = HPLM + 10% dialyzed FBS, 15.4 µM
[11] = HPLM + 10% dialyzed FBS, 46.1 µM
[12] = RPMI 5 mM glucose + 10% FBS, 0.000781 µM
[13] = RPMI 5 mM glucose + 10% FBS, 0.00234 µM
[14] = RPMI 5 mM glucose + 10% FBS, 0.00702 µM
[15] = RPMI 5 mM glucose + 10% FBS, 0.0211 µM
[16] = RPMI 5 mM glucose + 10% FBS, 0.0632 µM
[17] = RPMI 5 mM glucose + 10% FBS, 0.19 µM
[18] = RPMI 5 mM glucose + 10% FBS, 0.569 µM
[19] = RPMI 5 mM glucose + 10% FBS, 1.71 µM
[20] = RPMI 5 mM glucose + 10% FBS, 5.12 µM
[21] = RPMI 5 mM glucose + 10% FBS, 15.4 µM
[22] = RPMI 5 mM glucose + 10% FBS, 46.1 µM
[23] = RPMI 5 mM glucose + 10% dialyzed FBS, 0.000781 µM
[24] = RPMI 5 mM glucose + 10% dialyzed FBS, 0.00234 µM
[25] = RPMI 5 mM glucose + 10% dialyzed FBS, 0.00702 µM
[26] = RPMI 5 mM glucose + 10% dialyzed FBS, 0.0211 µM
[27] = RPMI 5 mM glucose + 10% dialyzed FBS, 0.0632 µM
[28] = RPMI 5 mM glucose + 10% dialyzed FBS, 0.19 µM
[29] = RPMI 5 mM glucose + 10% dialyzed FBS, 0.569 µM
[30] = RPMI 5 mM glucose + 10% dialyzed FBS, 1.71 µM
[31] = RPMI 5 mM glucose + 10% dialyzed FBS, 5.12 µM
[32] = RPMI 5 mM glucose + 10% dialyzed FBS, 15.4 µM
[33] = RPMI 5 mM glucose + 10% dialyzed FBS, 46.1 µM

SMILES	cell viability [1]	cell viability [2]	cell viability [3]	cell viability [4]	cell viability [5]	cell viability [6]	cell viability [7]	cell viability [8]	cell viability [9]	cell viability [10]	cell viability [11]	cell viability [12]	cell viability [13]	cell viability [14]	cell viability [15]	cell viability [16]	cell viability [17]	cell viability [18]	cell viability [19]	cell viability [20]	cell viability [21]	cell viability [22]	cell viability [23]	cell viability [24]	cell viability [25]	cell viability [26]	cell viability [27]	cell viability [28]	cell viability [29]	cell viability [30]	cell viability [31]	cell viability [32]	cell viability [33]
COc1cc(Nc2ncc(F)c(Nc3ccc4c(n3)N(COP(=O)(O)O)C(=O)C(C)(C)O4)n2)cc(OC)c1OC	97%	102%	101%	102%	108%	106%	105%	103%	110%	108%	98.2%	100%	98.2%	89.6%	100%	97.4%	96.8%	92.4%	95.7%	95.2%	93.9%	87.4%	92.8%	94.8%	98.4%	98%	103%	97.7%	93.9%	91.1%	101%	91.6%	91.6%
COC(=O)Nc1ccc(-c2nc(N3CCOCC3)c3cnn(C4CCN(Cc5cccnc5)CC4)c3n2)cc1	113%	117%	112%	113%	109%	96.2%	83.5%	83.6%	51.1%	31.9%	12.9%	106%	111%	102%	103%	98.3%	69.9%	61%	61.4%	43.1%	32.4%	24.7%	113%	118%	114%	116%	100%	72.3%	65.2%	59.8%	53.1%	43.5%	6.49%
NCCCC(O)(P(=O)(O)O)P(=O)(O)O.O.O.O.[Na+]	109%	113%	123%	114%	114%	112%	102%	97.9%	68.3%	45.1%	19.7%	120%	116%	119%	119%	119%	121%	112%	107%	85.5%	64.9%	51.4%	121%	121%	125%	120%	117%	120%	109%	97.3%	76.3%	46.4%	35.6%
CO[C@@H]1[C@@H](OC(N)=O)[C@@H](O)[C@H](OC2=CC=C3\C(=C(NC(=O)C4=CC=C([O-])C(=C4)CC=C(C)C)/C(=O)OC3=C2C)O)OC1(C)C	118%	108%	119%	115%	111%	106%	110%	104%	102%	100%	100%	107%	108%	124%	110%	114%	110%	113%	110%	108%	94.2%	97.8%	109%	105%	109%	110%	105%	106%	108%	109%	98%	98.5%	88.3%
COc1nccc(-c2c(-c3ccc(F)cc3)ncn2C2CCC(O)CC2)n1 (configuration not stated)	121%	117%	112%	108%	118%	115%	103%	105%	101%	98.3%	75.1%	113%	120%	122%	116%	111%	110%	117%	112%	110%	106%	86.3%	126%	121%	114%	117%	120%	123%	118%	115%	115%	115%	41.2%
CN[C@H]1[C@H](O[C@@H]2[C@H](O[C@@H]3[C@@H](O)[C@@H](O)[C@@H](NC(=N)N)[C@@H](O)[C@H]3NC(=N)N)O[C@H](C)[C@@]2(O)C=O)O[C@@H](CO)[C@@H](O)[C@H]1O	117%	117%	120%	108%	112%	115%	110%	110%	99.9%	108%	111%	108%	109%	107%	112%	120%	122%	102%	95.5%	94.7%	97.8%	103%	118%	115%	136%	123%	112%	105%	89.3%	86%	105%	104%	116%
Cc1ccc(NC(=O)Nc2cc(C(F)(F)F)ccc2F)cc1Nc1ccc2c(c1)NC(=O)/C2=C\c1ccc[nH]1	122%	123%	133%	133%	131%	143%	139%	134%	128%	137%	70.3%																						
CC(=O)OCC(=O)[C@@]12OC(C)(C)O[C@@H]1C[C@H]3[C@@H]4C[C@H](F)C/5=C/C(=O)/C=C\[C@]5(C)[C@@]4(F)[C@@H](O)C[C@]23C	107%	119%	111%	117%	110%	94.7%	76.7%	74.5%	71.6%	74.5%	72.4%	106%	128%	119%	115%	115%	84.2%	68.5%	70.8%	62.1%	64.2%	67.5%	117%	107%	114%	107%	87.8%	84.4%	62.8%	57.6%	55.1%	54.7%	56.9%
O=C(C1CC1)N1CC[C@@H](Cn2c(-c3ccc(-c4ccc5occc5c4)cc3)nc3cnccc32)C1	101%	117%	108%	114%	117%	126%	122%	127%	124%	119%	111%	92.7%	117%	120%	121%	131%	119%	124%	132%	111%	124%	83.5%	106%	112%	102%	120%	116%	128%	121%	128%	123%	119%	93%
Cc1ccc(NC(=O)c2cccc(N(C)C)c2)cc1NC(=O)c1ccc(O)cc1	120%	120%	118%	116%	111%	116%	119%	108%	108%	108%	96.7%	114%	122%	120%	127%	113%	111%	119%	113%	113%	102%	95.2%											
FC1=CC=C(CN2\C=C/C=C(/C(=O)N[C@@H](COC3=CC4=C(NC(=O)N4)C=C3)C5=CC=CC=C5)C2=O)C=C1F	89.1%	97.2%	98.9%	96.2%	104%	98.8%	97.3%	89.2%	76.4%	70.1%	64.7%	82.9%	90.2%	85.9%	86.8%	88.9%	88.9%	86.9%	72.6%	53.9%	50.5%	44.8%	81.6%	89.4%	90.5%	94.6%	89.3%	94.5%	79.9%	76.6%	58.5%	54.2%	45.4%
C[N]1N=CC2=C1C=C(C(=C2)OC3=CC=C(NC(=O)\C4=C\C=C(\C)N(C4=O)C5=CC=C(F)C=C5)C=C3F)C6=C[NH]N=C6	99.5%	113%	117%	114%	114%	127%	123%	104%	78.1%	12%	8.97%	104%	109%	115%	117%	127%	130%	130%	128%	78.9%	16.1%	10.5%	119%	123%	130%	125%	124%	138%	129%	128%	90.2%	26.6%	16.3%
CN1/C=C(\N=C(NC2=CC=C(C=C2)C(=O)N3CCOCC3)/C1=O)/C4=C(C)C(=CC=C4)NC(=O)C5=CC=C(C=C5)C(C)(C)C	107%	108%	108%	101%	104%	103%	106%	98.1%	98.3%	88.6%	89.5%	102%	95.4%	107%	91.2%	106%	110%	97.9%	100%	98.5%	95.4%	94.4%	106%	111%	103%	101%	108%	106%	105%	106%	107%	93.7%	85.7%
CCCCOc1ccc(CC(=O)NO)cc1	108%	108%	108%	110%	111%	102%	102%	105%	107%	97.5%	67.7%	115%	115%	102%	116%	109%	111%	105%	101%	100%	96.4%	59.1%	114%	109%	113%	108%	110%	104%	108%	106%	98.3%	92.4%	59.2%
CC1=CC=C2\N=C/3N(CC[C@@]3(O)C(=O)C2=C1)C4=CC=CC=C4	97.2%	98.3%	94.9%	94.6%	99.3%	88.8%	92.1%	95.3%	82%	86.6%	89.5%	84.8%	82.3%	92%	90.2%	92.4%	89.2%	89%	90.2%	83.8%	86.7%	86.9%	95.4%	86%	84.1%	83.1%	84.5%	81.1%	90%	82.1%	81.9%	76.4%	78.7%
